Measured values: US11786534B2 (TAIHO PHARMACEUTICAL CO., LTD., priority 2019, dated 2023)

Legend:
Ba/F3-EGFR (WT) = Ba/F3-EGFR (WT) (Homo sapiens, UniProt P00533); experiment: Growth inhibition of cell line expressing wild-type EGFR; format: cell-based, mouse; conditions: Test Example 4, Table 13; same procedures as Test Example 2; read-out: BaF3_EGFR (WT) IC50 value
Source text: (§1) Test for inhibitory activity against the growth of cell lines expressing wild-type and mutated EGFRs (in vitro)
(§2) (1) Mouse cell line Ba/F3-EGFR (d746-750/T790M/C797S) transfected with and stably expressing EGFR (d746-750/T790M/C797S), mouse cell Ba/F3-EGFR (L858R/T790M/C797S) transfected with and stably expressing EGFR (L858R/T790M/C797S), and mouse cell line Ba/F3-EGFR (WT) transfected with and stably expressing wild-type EGFR were each suspended in RPMI-1640 cell culture medium (RPMI-1640, 10% FBS, 100 unit/ml penicillin, 0.1 mg/ml streptomycin). In the case of the mouse cell line Ba/F3-EGFR (WT), RPMI-1640 cell culture medium containing EGF at a final concentration of 50 ng/ml was used to suspend this cell line. It should be noted that the mouse cell line Ba/F3-EGFR (d746-750/T790M/C797S) transfected with and stably expressing EGFR (d746-750/T790M/C797S), the mouse cell line Ba/F3-EGFR (L858R/T790M/C797S) transfected with and stably expressing EGFR (L858R/T790M/C797S) and the mouse cell line Ba/F3-EGFR (WT) transfected with and stably expressing wild-type EGFR were prepared by using nucleotide sequences encoding the proteins of SEQ ID NOs: 1 and 2 in accordance with Test Example 1 in WO2018/079310, These cell suspensions were seeded in wells of 96-well flat -bottomed plates. The compounds of the present invention were dissolved in DMSO, and serial dilutions of these test compounds were prepared with DMSO (1000-fold of the final concentration). Each test compound solution in DMSO or DMSO alone was diluted with RPMI-1640 cell culture medium for each cell line, and this dilution was added to wells of the cell culture plate such that the final concentration of DMSO was 0.1%, followed by culture at 37° C. for 3 days in a 5% carbon dioxide gas-containing incubator. Before and after addition of each test compound solution in DMSO, the number of cells was counted using the CellTiter-Glo® system (Promega) on the basis of the protocol recommended by Promega.
(§3) In each cell line, the rate of cell growth inhibition was calculated according to the equation shown below in wells to which each test compound was added at different concentrations. Moreover, the inhibition rate at each concentration was plotted for each test compound, and the concentration of each test compound required to give 50% cell survival rate, i.e., IC50 (nM) was determined by curve fitting software XLfit (IDBS).
(§4) Cell survival rate (%)=T/C×100
(§5) T: emission intensity in a well cultured for 3 days after addition of a test compound solution
(§6) C: emission intensity in a well cultured for 3 days after addition of DMSO
(§7) In accordance with the same procedures as shown in Test Example 2, the compounds of the present invention were tested for their inhibitory activity against the growth of the cell hoes expressing wild-type and mutated EGFRs.

[1] = target: Ba/F3-EGFR (d746-750/T790M/C797S) (Homo sapiens, UniProt P00533, DEL746-750/T790M/C797S, cells depend on it); experiment: Growth inhibition of cell line expressing EGFR (d746-750/T790M/C797S); format: cell-based, mouse; conditions: Test Example 4, Table 13; same procedures as Test Example 2; read-out: BaF3_EGFR (d746-750/T790M/C797S) IC50 value
Source text: as §1, §2, §3, §4, §5, §6, §7

[2] = target: Ba/F3-EGFR (L858R/T790M/C797S) (Homo sapiens, UniProt P00533, T790M/C797S/L858R, cells depend on it); experiment: Growth inhibition of cell line expressing EGFR (L858R/T790M/C797S); format: cell-based, mouse; conditions: Test Example 4, Table 13; same procedures as Test Example 2; read-out: BaF3_EGFR (L858R/T790M/C797S) IC50 value
Source text: as §1, §2, §3, §4, §5, §6, §7

human EGFR (L858R/C797S) = target: T1, human EGFR (L858R/C797S) (Homo sapiens, UniProt P00533, C797S/L858R); experiment: Inhibitory activity against EGFR (L858R/C797S) kinase; format: biochemical
T1 construct: purchased SignalChem
Summary of the method: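 Purified recombinant human EGFR (C797S/L858R) kinase, final ATP 4 μM, 90-minute kinase reaction, otherwise per the EGFR (d746-750/C797S) protocol. IC50 (nM) determined from inhibition data.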

[3] = target: T2, human EGFR (L858R/T790M/C797S) (Homo sapiens, UniProt P00533, C797S/L858R/T790M); experiment: Inhibitory activity against EGFR (L858R/T790M/C797S) kinase; format: biochemical
T2 construct: made in house; host or cells: Sf9 insect cells, baculovirus
Summary of the method: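 GST-tagged cytoplasmic domain of human EGFR L858R/T790M/C797S, expressed in Sf9 insect cells via baculovirus and glutathione-purified. Kinase reaction run at 0.5 μM ATP final; IC50 (nM) determined per compound.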

[4] = target: T3, human EGFR (d746-750/C797S) (Homo sapiens, UniProt P00533, C797S/DEL746-750); experiment: Inhibitory activity against EGFR (d746-750/C797S) kinase; format: biochemical
T3 construct: purchased SignalChem
Summary of the method: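 Recombinant human EGFR d746-750/C797S in 13.5 mM Tris pH 7.5 with 2 mM DTT and 0.009% Tween-20. Reaction ran 60 min with 14 μM ATP, 20 mM MgCl2 and 12.5 mM MnCl2, stopped by 40 mM EDTA. IC50 in nM.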

[5] = target: T4, human EGFR (d746-750/T790M/C797S) (Homo sapiens, UniProt P00533, C797S/DEL746-750/T790M); experiment: Inhibitory activity against EGFR (d746-750/T790M/C797S) kinase; format: biochemical
T4 construct: made in house; host or cells: Sf9 insect cells, baculovirus
Summary of the method: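 GST-fused cytoplasmic domain of human EGFR d746-750/T790M/C797S (Sf9-expressed) was incubated with 250 nM biotinylated peptide, 6 μM ATP, 10 mM MgCl2 and 10 mM MnCl2 (2.5% DMSO) for 120 min at 25 °C. After an EDTA stop, phosphotyrosine was detected by Eu-PT66/SureLight APC-SA TR-FRET (665/620 nm, excitation 337 nm). Background wells received EDTA before enzyme.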

human EGFR (WT) = target: T5, human EGFR (WT) (Homo sapiens, UniProt P00533); experiment: Inhibitory activity against EGFR (WT) kinase; format: biochemical
T5 construct: purchased Carna Biosciences Inc., Japan
Summary of the method: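 Purified recombinant human wild-type EGFR kinase, with ATP at 1.5 μM final. Compound inhibition of kinase activity read out and fitted to give IC50 (nM).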

[6] = Test Example 1, Table 5, ATP 4 μM, 90 minutes
[7] = Test Example 1, Table 3, ATP 0.5 μM
[8] = Test Example 1, Table 4, ATP 14 μM, 60 minutes
[9] = Test Example 1, Table 2, ATP 6 μM, 25° C., 120 minutes
[10] = Test Example 1, Table 6, ATP 1.5 μM
[11] = Test Example 3, Table 11; same procedures as 4) in Test Example 1
[12] = Test Example 3, Table 9; same procedures as 2) in Test Example 1
[13] = Test Example 3, Table 10; same procedures as 3) in Test Example 1
[14] = Test Example 3, Table 8; same procedures as 1) in Test Example 1
[15] = Test Example 3, Table 12; same procedures as 5) in Test Example 1

T4 sequence (P00533 with tags, fused parts or gaps DEL746-750/T790M/C797S): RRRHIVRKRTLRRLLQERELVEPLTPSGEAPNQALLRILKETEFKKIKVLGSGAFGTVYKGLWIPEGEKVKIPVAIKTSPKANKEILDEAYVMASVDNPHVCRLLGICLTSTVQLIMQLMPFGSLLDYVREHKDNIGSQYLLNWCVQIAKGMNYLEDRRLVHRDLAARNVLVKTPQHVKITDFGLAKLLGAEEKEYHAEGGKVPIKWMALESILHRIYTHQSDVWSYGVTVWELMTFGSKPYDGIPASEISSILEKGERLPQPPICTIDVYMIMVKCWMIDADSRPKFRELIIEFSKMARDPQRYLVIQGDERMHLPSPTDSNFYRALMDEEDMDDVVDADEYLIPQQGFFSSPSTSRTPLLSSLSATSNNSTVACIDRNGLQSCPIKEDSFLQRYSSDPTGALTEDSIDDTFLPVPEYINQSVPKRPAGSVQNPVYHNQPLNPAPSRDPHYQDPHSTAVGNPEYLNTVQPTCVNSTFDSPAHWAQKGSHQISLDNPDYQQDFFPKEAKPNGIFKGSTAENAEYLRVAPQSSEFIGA
T1 sequence (P00533 25-1210 C797S/L858R): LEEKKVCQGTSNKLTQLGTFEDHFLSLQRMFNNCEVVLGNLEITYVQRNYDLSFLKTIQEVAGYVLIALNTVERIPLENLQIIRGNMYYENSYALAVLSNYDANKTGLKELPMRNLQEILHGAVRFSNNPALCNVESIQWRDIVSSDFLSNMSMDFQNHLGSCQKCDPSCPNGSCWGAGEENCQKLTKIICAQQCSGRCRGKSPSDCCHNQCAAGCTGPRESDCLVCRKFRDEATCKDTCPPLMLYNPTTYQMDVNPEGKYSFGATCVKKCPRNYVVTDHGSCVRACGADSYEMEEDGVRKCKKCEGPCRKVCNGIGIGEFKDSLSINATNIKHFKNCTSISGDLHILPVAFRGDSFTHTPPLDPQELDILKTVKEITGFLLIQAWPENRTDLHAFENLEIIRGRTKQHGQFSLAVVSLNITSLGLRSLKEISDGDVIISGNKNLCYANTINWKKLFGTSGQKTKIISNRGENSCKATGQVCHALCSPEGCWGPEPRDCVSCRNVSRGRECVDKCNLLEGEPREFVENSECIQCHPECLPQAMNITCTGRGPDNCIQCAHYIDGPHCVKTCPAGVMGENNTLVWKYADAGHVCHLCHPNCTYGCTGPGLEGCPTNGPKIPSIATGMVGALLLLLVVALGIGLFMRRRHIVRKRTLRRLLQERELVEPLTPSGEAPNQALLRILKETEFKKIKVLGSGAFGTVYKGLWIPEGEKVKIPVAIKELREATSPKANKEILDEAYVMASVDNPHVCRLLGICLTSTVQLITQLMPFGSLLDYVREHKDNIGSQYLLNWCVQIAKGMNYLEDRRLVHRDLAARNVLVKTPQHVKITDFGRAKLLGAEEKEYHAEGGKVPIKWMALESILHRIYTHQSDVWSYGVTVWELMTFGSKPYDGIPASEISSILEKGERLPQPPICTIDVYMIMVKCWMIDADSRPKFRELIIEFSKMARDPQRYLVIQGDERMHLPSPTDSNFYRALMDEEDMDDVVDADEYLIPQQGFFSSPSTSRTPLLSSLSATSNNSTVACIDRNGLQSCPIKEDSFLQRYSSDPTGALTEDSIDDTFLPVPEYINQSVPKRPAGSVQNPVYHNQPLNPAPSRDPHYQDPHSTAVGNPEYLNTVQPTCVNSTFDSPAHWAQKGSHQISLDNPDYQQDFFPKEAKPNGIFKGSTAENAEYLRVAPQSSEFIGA
T5 sequence (P00533 25-1210): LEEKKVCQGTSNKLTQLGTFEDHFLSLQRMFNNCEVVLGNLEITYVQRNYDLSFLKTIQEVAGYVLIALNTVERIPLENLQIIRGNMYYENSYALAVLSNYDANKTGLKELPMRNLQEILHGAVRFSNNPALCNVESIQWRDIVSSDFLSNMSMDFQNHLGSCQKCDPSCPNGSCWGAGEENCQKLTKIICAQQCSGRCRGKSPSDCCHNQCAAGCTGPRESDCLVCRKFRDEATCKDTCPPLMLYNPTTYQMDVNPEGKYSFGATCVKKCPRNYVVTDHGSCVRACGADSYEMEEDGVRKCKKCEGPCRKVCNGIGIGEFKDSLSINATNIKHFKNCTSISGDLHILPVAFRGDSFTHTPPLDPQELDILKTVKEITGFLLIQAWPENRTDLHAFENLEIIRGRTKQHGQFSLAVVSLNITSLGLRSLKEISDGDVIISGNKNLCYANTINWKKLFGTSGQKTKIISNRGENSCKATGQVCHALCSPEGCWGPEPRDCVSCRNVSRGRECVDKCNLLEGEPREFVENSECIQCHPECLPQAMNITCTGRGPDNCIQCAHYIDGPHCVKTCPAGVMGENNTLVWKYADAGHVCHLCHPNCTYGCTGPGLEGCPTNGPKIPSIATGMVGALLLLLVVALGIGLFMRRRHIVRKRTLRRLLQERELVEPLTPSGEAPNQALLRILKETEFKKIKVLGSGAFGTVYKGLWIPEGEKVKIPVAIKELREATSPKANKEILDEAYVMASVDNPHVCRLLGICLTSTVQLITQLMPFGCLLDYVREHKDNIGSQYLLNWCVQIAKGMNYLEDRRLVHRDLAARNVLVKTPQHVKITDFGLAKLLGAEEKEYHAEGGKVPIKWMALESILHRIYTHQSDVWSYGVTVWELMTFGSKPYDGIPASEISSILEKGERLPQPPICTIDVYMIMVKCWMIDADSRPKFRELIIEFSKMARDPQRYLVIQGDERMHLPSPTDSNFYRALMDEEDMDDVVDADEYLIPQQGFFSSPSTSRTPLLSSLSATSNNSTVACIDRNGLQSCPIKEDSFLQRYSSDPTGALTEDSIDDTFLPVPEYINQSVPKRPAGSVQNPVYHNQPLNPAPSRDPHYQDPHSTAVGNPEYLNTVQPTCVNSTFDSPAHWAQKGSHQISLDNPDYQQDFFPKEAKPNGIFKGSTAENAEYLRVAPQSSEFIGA
T3 sequence (P00533 with tags, fused parts or gaps DEL746-750/C797S): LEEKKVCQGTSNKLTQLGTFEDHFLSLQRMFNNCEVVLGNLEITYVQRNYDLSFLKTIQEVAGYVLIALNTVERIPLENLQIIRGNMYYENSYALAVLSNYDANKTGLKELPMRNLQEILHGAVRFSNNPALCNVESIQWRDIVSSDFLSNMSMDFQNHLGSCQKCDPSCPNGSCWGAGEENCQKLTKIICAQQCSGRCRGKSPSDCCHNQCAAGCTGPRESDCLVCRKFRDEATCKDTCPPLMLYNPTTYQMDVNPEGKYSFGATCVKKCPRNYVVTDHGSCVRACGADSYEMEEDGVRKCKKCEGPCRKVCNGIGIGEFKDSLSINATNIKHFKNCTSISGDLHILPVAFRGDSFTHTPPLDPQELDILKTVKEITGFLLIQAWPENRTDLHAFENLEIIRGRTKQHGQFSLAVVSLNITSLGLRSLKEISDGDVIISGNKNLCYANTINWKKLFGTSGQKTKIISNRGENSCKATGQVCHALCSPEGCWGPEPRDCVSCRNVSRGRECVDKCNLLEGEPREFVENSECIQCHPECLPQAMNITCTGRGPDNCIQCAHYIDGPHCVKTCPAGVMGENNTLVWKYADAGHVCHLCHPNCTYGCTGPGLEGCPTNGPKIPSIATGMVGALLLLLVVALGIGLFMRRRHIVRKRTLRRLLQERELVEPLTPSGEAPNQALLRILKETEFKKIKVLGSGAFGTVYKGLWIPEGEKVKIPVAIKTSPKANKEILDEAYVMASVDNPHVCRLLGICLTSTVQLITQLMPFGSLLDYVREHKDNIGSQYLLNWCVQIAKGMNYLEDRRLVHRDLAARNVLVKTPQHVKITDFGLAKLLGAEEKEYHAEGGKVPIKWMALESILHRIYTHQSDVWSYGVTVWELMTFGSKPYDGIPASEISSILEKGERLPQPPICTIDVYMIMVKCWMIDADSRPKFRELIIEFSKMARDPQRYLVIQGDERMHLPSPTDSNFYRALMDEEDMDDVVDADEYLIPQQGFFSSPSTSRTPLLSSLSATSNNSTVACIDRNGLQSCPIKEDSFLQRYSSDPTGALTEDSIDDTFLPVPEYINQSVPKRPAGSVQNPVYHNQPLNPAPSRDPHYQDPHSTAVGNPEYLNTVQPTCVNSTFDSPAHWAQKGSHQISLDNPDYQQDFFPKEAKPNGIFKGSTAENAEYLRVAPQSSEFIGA
T2 sequence (P00533 with tags, fused parts or gaps T790M/C797S/L858R): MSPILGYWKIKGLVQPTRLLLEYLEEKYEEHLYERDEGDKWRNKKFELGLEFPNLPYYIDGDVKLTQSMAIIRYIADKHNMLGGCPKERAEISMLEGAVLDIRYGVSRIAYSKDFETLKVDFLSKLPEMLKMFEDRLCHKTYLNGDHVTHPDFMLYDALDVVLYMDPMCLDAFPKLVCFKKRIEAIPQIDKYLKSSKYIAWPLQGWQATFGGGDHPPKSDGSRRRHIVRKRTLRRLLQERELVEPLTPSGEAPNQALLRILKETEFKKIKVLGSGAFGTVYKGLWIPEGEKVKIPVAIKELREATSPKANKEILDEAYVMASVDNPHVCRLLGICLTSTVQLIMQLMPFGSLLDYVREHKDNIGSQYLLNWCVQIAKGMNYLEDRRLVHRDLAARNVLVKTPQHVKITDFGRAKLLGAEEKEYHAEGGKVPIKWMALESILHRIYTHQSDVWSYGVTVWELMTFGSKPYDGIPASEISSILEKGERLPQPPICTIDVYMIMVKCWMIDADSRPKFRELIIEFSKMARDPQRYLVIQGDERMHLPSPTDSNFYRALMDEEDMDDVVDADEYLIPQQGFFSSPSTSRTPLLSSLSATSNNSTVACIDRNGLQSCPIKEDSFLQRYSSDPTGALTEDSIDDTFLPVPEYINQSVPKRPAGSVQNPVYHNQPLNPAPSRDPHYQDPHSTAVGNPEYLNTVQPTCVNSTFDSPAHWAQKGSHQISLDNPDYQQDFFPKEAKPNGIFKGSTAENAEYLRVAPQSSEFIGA

| SMILES | GI50 (Ba/F3-EGFR (WT)) | GI50 [1] | GI50 [2] | IC50 (human EGFR (L858R/C797S); [6]) | IC50 [3, 7] | IC50 [4, 8] | IC50 [5, 9] | IC50 (human EGFR (WT); [10]) | IC50 (human EGFR (L858R/C797S); [11]) | IC50 [3, 12] | IC50 [4, 13] | IC50 [5, 14] | IC50 (human EGFR (WT); [15]) |
| --- | --- | --- | --- | --- | --- | --- | --- | --- | --- | --- | --- | --- | --- |
| C#Cc1c(-c2cnc3ccccc3c2)c2c(N)ncnc2n1C12CCC(NC(=O)c3cccc[n+]3[O-])(CC1)C2 [Example 60, 2-((4-(4-Amino-6-ethynyl-5-(quinolin-3-yl)-7H-pyrrolo[2,3-d]pyrimidin-7-yl)bicyclo-[2.2.1]heptane-1-yl)carbamoyl)pyridine 1-oxide] |  |  |  |  |  |  |  |  | 0.48 nM | < 0.3 nM | 0.3 nM | < 0.3 nM | 0.72 nM |
| C#Cc1c(-c2cnc3ccccc3c2)c2c(N)ncnc2n1C12CCC(N(C)C)(CC1)C2 [Example 11, 7-(4-(Dimethylamino)bicyclo[2.2.1]heptan-1-yl)-6-ethynyl-5-(quinolin-3-yl)-7H -pyrrolo[2,3-d]pyrimidine-4-amine] |  |  |  | 2.4 nM | 0.69 nM | 1.6 nM | < 0.3 nM | 11 nM |  |  |  |  |  |
| C#Cc1c(-c2cnc3ccccc3c2)c2c(N)ncnc2n1C12CCC(NCC#N)(CC1)C2 [Example 4, 2-((4-(4-Amino-6-ethynyl-5-(quinolin-3-yl)-7H-pyrrolo[2,3-d]pyrimidin-7-yl)bicyclo-[2.2.1]heptan-1-yl)amino)acetonitrile] |  |  |  | 1.5 nM | 0.38 nM | 1 nM | 0.36 nM | 2.9 nM |  |  |  |  |  |
| C#Cc1c(-c2cnc3ccccc3c2)c2c(N)ncnc2n1C12CCC(NC(=O)c3ccnn3-c3ccccc3)(CC1)C2 [Example 26, N-(4-(4-Amino-6-ethynyl-5-(quinolin-3-yl)-7H-pyrrolo[2,3-d]pyrimidin-7-yl)bicyclo-[2.2.1]heptan-1-yl)-1-phenyl-1H-pyrazole-5-carboxamide] |  |  |  | 0.84 nM | 0.62 nM | 0.71 nM | < 0.3 nM | 2.1 nM |  |  |  |  |  |
| C#Cc1c(-c2cnc3ccccc3c2)c2c(N)ncnc2n1C12CCC(NC(=S)NCC)(CC1)C2 [Example 52] |  |  |  | 2.6 nM | 0.6 nM | 1.5 nM | < 0.3 nM | 0.88 nM |  |  |  |  |  |

More lines, now with the values ahead:

| GI50 (Ba/F3-EGFR (WT)) | GI50 [1] | GI50 [2] | IC50 (human EGFR (L858R/C797S); [6]) | IC50 [3, 7] | IC50 [4, 8] | IC50 [5, 9] | IC50 (human EGFR (WT); [10]) | IC50 (human EGFR (L858R/C797S); [11]) | IC50 [3, 12] | IC50 [4, 13] | IC50 [5, 14] | IC50 (human EGFR (WT); [15]) | SMILES |
| --- | --- | --- | --- | --- | --- | --- | --- | --- | --- | --- | --- | --- | --- |
| 2060 nM | 33 nM | 382 nM |  |  |  |  |  |  |  |  |  |  | C#Cc1c(-c2cnc3ccccc3c2)c2c(N)ncnc2n1C12CCC(NC(=O)c3cnco3)(CC1)C2 [Example 47] |
|  |  |  | 0.66 nM | 0.79 nM | 0.61 nM | < 0.3 nM | 2.6 nM |  |  |  |  |  | C#Cc1c(-c2cnc3ccccc3c2)c2c(N)ncnc2n1C12CCC(NC(=O)c3ccnn3CCOC)(CC1)C2 [Example 17, N-(4-(4-Amino-6-ethynyl-5-(quinolin-3-yl)-7H-pyrrolo[2,3-d]pyrimidin-7-yl)bicyclo-[2.2.1]heptan-1-yl)-1-(2-methoxyethyl)-1H-pyrazole-5-carboxamide] |
|  |  |  | 2 nM | 0.68 nM | 0.97 nM | < 0.3 nM | 1.2 nM |  |  |  |  |  | C#Cc1c(-c2cnc3ccccc3c2)c2c(N)ncnc2n1C12CCC(NC(=O)NCC)(CC1)C2 [Example 50] |
|  |  |  | 1.7 nM | 1.1 nM | 0.89 nM | < 0.3 nM | 3.2 nM |  |  |  |  |  | C#Cc1c(-c2cnc3ccccc3c2)c2c(N)ncnc2n1C12CCC(NC(=O)COC)(CC1)C2 [Example 28, N-(4-(4-Amino-6-ethynyl-5-(quinolin-3-yl)-7H-pyrrolo[2,3-d]pyrimidin-7-yl)bicyclo-[2.2.1]heptan-1-yl)-2-methoxyacetamide] |
|  |  |  |  |  |  |  |  | 0.59 nM | < 0.3 nM | < 0.3 nM | < 0.3 nM | 0.74 nM | C#Cc1c(-c2cnc3ccccc3c2)c2c(N)ncnc2n1C12CCC(NC(=O)c3cnc(CN4CCOCC4)cn3)(CC1)C2 [Example 69, N-(4-(4-Amino-6-ethynyl-5-(quinolin-3-yl)-7H-pyrrolo[2,3-d]pyrimidin-7-yl)bicyclo-[2.2.1]heptan-1-yl)-5-(morpholinomethyl)pyrazine-2-carboxamide] |
|  |  |  |  |  |  |  |  | 1.1 nM | 1.6 nM | 0.54 nM | < 0.3 nM | 2.7 nM | C#Cc1c(-c2cnc3ccccc3c2)c2c(N)ncnc2n1C12CCC(NC(=O)N3CCOCC3)(CC1)C2 [Example 61, N-(4-(4-Amino-6-ethynyl-5-(quinolin-3-yl)-7H-pyrrolo[2,3-d]pyrimidin-7-yl)bicyclo-[2.2.1]heptan-1-yl)morpholine-4-carboxamide] |
|  |  |  |  |  |  |  |  | < 0.3 nM | < 0.3 nM | < 0.3 nM | < 0.3 nM | < 0.3 nM | C#Cc1c(-c2cnc3ccccc3c2)c2c(N)ncnc2n1C12CCC(NC(=O)c3cnc(CO)cn3)(CC1)C2 [Example 66, N-(4-(4-Amino-6-ethynyl-5-(quinolin-3-yl)-7H-pyrrolo[2,3-d]pyrimidin-7-yl)bicyclo-[2.2.1]heptan-1-yl)-5-(hydroxymethyl)pyrazine-2-carboxamide] |
|  |  |  | 4.6 nM | 0.7 nM | 2.1 nM | < 0.3 nM | 5.2 nM |  |  |  |  |  | C#Cc1c(-c2cnc3ccccc3c2)c2c(N)ncnc2n1C12CCC(NC(=O)c3ccnn3C)(CC1)CC2 [Example 6, N-(4-(4-Amino-6-ethynyl-5-(quinoiln-3-yl)-7H-pyrrolo[2,3-d]pyrimidin-7-yl)bicyclo-[2.2.2]octan-1-yl)-1-methyl-1H-pyrazole-5-carboxamide] |
